Results reported in patent US20260027132A1, “FRAGRANCE COMPOSITIONS AND USE THEREOF FOR IMPROVING SLEEP” (TAKASAGO INTERNATIONAL CORPORATION, priority 2018, published 2026).

The compounds below were run on panelists (assay: Sleep study with panelists smelling test material at bedtime, Fitbit sleep data versus blank control). Settings: vs blank control (no fragrance), 0.06 g neat oil on a blotter, smelled at bedtime, jar left open, one week.
Assay type: in vivo, human
Description: A series of sleep studies were conducted. Each study runs one week with one additional week for blank control sample (no fragrance). The number of panelists in each study ranged from 9 to 15. Panelists received either a set of control jars or a set of jars with test material (0.06 g neat oil on a blotter). The second week the order was reversed such that at the end of each study, each panelist had received both treatments.
Each night, when ready to go to sleep, panelists were instructed to open one of the jars, hold it under their nose, and smell the fragrance while counting slowly to 20, then leave the jar open on the night table while sleeping. Fitbit sleep data were collected at the end of each session of each study and analyzed by ANOVA.
For `CC(C)=CCC/C(C)=C/CO` [Geraniol, geraniol], the “Total deep sleep minutes % Increase” value was 29%, the “Total light sleep minutes % Increase” value was 8% and the “Total minutes asleep % Increase” value was 10%.
`CC(C=O)Cc1ccc(C(C)C)cc1` (stereo not shown) [Cyclamen aldehyde, cyclamen aldehyde] was tested, and the “Sleep efficiency % Increase” value was 1.2%, the “Total deep sleep minutes % Increase” value was 7.4% and the “Total minutes asleep % Increase” value was 4%. The “Total minutes awake % Decrease” value was 7%.
For `C=CC(C)(O)CCC=C(C)C` (stereo not shown) [Linalool, linalool], the “Total light sleep minutes % Increase” value was 5%.
`CC1CCCCCCCCCCCCC(=O)C1` [L-muscone, 3-methylcyclopentadecan-1-one] was tested, and the “Total deep sleep minutes % Increase” value was 11%.
With `CC(C)C(=O)OCCOc1ccccc1` [Phenoxyethyl isobutyrate, phenoxyethyl isobutyrate] the “Total light sleep minutes % Increase” value was 8%.
For `COc1cc(C=O)ccc1O` [Vanillin, vanillin], the “Total REM sleep minutes % Increase” value was 7%.
`CC/C=C\CCOC(=O)c1ccccc1O` [cis-3-hexenyl salicylate] was tested, and the “Total deep sleep minutes % Increase” value was 8%.
In the case of `CC(=O)/C(C)=C/C1C(C)=CCCC1(C)C` (stereo not shown) [gamma-methyl ionone], the “Total light sleep minutes % Increase” value was 12%.
In the case of `CC(C)=CCC/C(C)=C\CO` [Nerol, nerol], the “Total light sleep minutes % Increase” value was 4% and the “Total minutes asleep % Increase” value was 4%.
For `CC(=O)/C=C/C1C(C)=CCCC1(C)C` (stereo not drawn) [alpha-ionone], the “Total deep sleep minutes % Increase” value was 14% and the “Total minutes asleep % Increase” value was 5%.
With `O=C1CCCCCCCCCCCC(=O)OCCO1` [Musk T, 1,4-dioxacycloheptadecane-5,17-dione] the “Sleep efficiency % Increase” value was 2% and the “Total minutes awake % Decrease” value was 13%.
`C=CC(C)(CCC=C(C)C)OC(C)=O` (stereo not shown) [Linalyl acetate, linalyl acetate] was tested, and the “Sleep efficiency % Increase” value was 2%, the “Total REM sleep minutes % Increase” value was 19% and the “Total deep sleep minutes % Increase” value was 16%. The “Total minutes awake % Decrease” value was 10.6%.
`CC(C=O)Cc1ccc(C(C)(C)C)cc1` (stereo not shown) [Lilial, lilial] was tested, and the “Sleep efficiency % Increase” value was 1%, the “Total REM sleep minutes % Increase” value was 6% and the “Total light sleep minutes % Increase” value was 5%. For the same compound, the “Total minutes asleep % Increase” value was 4%.
In the case of `O=C1CCCC=CCCCCCCCCCC1` [Ambretone, 5-cyclohexadecen-1-one], the “Total light sleep minutes % Increase” value was 4%.
With `CC1(C)CCC[C@]2(C)[C@H]3CCO[C@]3(C)CC[C@@H]12` [Ambroxan, (3aR,5aS,9aS,9bR)-3a,6,6,9a-tetramethyl-2,4,5,5a,7,8,9,9b-octahydro-1H-benzo[e][1]benzofuran] the “Total minutes awake % Decrease” value was 8%.
`CC(=O)/C=C/C1=C(C)CCCC1(C)C` [beta-ionone] was tested, and the “Sleep efficiency % Increase” value was 2%, the “Total light sleep minutes % Increase” value was 3% and the “Total minutes awake % Decrease” value was 12%.
`C=CC(C)CCCC(C)(C)O` (stereo not shown) [Dihydromyrcenol, dihydromyrcenol] was tested, and the “Total REM sleep minutes % Increase” value was 10%, the “Total deep sleep minutes % Increase” value was 37% and the “Total minutes asleep % Increase” value was 13%.
With `CC(C)[C@@H]1CC[C@@H](C)C[C@H]1O` [L-menthol] the “Sleep efficiency % Increase” value was 1% and the “Total light sleep minutes % Increase” value was 3%.
